Key:
CMYC [1] = assay: CMYC modulation (Western blot, qRT-PCR) in resistant cell line K562; type: cell-based, human; conditions: K562, 500 nM
Protocol: (§1) Five established human cell lines from acute and chronic acute myeloid leukemia (HL-60, U937, K562) and acute lymphoblastic leukemia (Jurkat, MOLT-3) were used. […] For cellular PK studies, cells were seeded at 2·10^6 cells/ml and exposed to 500 nM compound 1-1 for 0, 5, 15, 30, 60, 120 and 360 minutes. At each time point, compound 1-1 extracellular and intracellular concentrations were analyzed in cell supernatant and pellets respectively, using an Ultra Performance Liquid Chromatography with tandem Mass Spectrometry (concentration range 1-250 ng/mL). Experiments were performed in quadruplicate. In addition, in cell pellets protein modulation was analyzed by Western blot using commercial antibodies and qRT-PCR was performed using Fast SYBR Green on a StepOnePlus RT-PCR System.

[2] = system: HL-60, U937, K562, Jurkat, MOLT-3; assay: cellular PK: extracellular and intracellular concentrations by UPLC-MS/MS; type: in vitro ADME, human; conditions: 500 nM
Protocol: as §1

[3] = system: other cell lines (K-562, NALM-1, CCRF-CEM, MOLT-3/-4); assay: MTT assay after 72 hours, other cell lines; type: cell-based; conditions: Homo sapiens, 72 h exposure
Protocol: (§2) Protein was analyzed by Western blot and qRT-PCR was performed with Fast SYBR Green on a StepOnePlus Real-Time PCR System. […] Combination Index (CI) was determined using Chou & Talalay analysis; CI<1 reflects synergy, CI=1 additivity and CI>1 reflects antagonism.
(§3) Four established human cell lines derived from acute (HL60, U937) or chronic (K562) myeloid leukemia cells, and acute lymphoblastic leukemia cells (Jurkat) were treated with increasing doses of compound (1-1). MTT assays were performed after 72 hours exposure. GI50 and Emax values were calculated with the equation for sigmoidal dose response using Prism 5.00 and cell lines were classified as sensitive or resistant.
(§4) Five established human cell lines from acute and chronic acute myeloid leukemia (HL-60, U937, K562) and acute lymphoblastic leukemia (Jurkat, MOLT-3) were used. […] At each time point, compound 1-1 extracellular and intracellular concentrations were analyzed in cell supernatant and pellets respectively, using an Ultra Performance Liquid Chromatography with tandem Mass Spectrometry (concentration range 1-250 ng/mL). […] In addition, in cell pellets protein modulation was analyzed by Western blot using commercial antibodies and qRT-PCR was performed using Fast SYBR Green on a StepOnePlus RT-PCR System.

HL60, U937 and Jurkat = assay: MTT assay after 72 hours, sensitive cell lines; type: cell-based; conditions: Homo sapiens, 72 h exposure
Protocol: as §2, §3, §4

[4] = phase Ib dose-finding study, population pharmacokinetics; type: in vivo, human
Protocol: An oncology phase Ib trial of compound (1-1) was conducted by the inventors with the primary objective of investigating escalation of the dose of compound (1-1) administered to patients with acute leukemia or other hematologic malignancies. The study enrolled patients with acute leukemia or other hematologic malignancies. The patients received several active dose levels of compound (1-1) ranging from 10 mg to 160 mg according to different dosing schedules. Blood samples from 7 time points were collected from each patient over 24 hours post-administration on Day 1 for leukemia patients (“complete PK”) and 4 blood samples were collected from each patient over 8 hours post-administration for patients with other hematologic malignancies (“limited PK”). compound (1-1) plasma concentrations were measured on the basis of the blood samples using validated ultra performance liquid chromatography with tandem mass spectrometry detection with a concentration range 1-250 ng/mL. Analyses and population pharmacokinetics (PPK) modeling were performed with the nonlinear mixed effect modeling software program Monolix version 4.3. Pharmacokinetic Parameters, including absorption constant (Ka); apparent distribution volume (V/F), apparent clearance (CL/F) and lean body mass (LBM; calculated calculated considering patient sex, weight and height) were calculated.
85 patients enrolled in the phase Ib trial of compound (1-1) and were treated from January 2013 to August 2014. The patients were randomized to […]: 10 mg, 20 mg, 40 mg, 80 mg, 120 mg and 160 mg once a day dosing (QD); and 40 mg twice a day dosing (BID). Among them, 81 patients with 630 plasma concentrations (607+23 BLQ) were evaluable for PK assessment. A 1-compartment open model adequately described the total compound (1-1) concentration-time curve. […] In the PPK study, the best simulation model was obtained when LBM was considered in the analysis. A correlation between CL/F and V/F was also observed for compound (1-1).

CMYC [5] = assay: CMYC modulation (Western blot, qRT-PCR) in sensitive cell lines HL60 and Jurkat; type: cell-based, human; conditions: 500 nM
Protocol: as §1

HDAC8 = target: T1, HDAC8 (Homo sapiens, UniProt Q9BY41); conditions: cited from earlier work
T1 sequence (Q9BY41 1-377): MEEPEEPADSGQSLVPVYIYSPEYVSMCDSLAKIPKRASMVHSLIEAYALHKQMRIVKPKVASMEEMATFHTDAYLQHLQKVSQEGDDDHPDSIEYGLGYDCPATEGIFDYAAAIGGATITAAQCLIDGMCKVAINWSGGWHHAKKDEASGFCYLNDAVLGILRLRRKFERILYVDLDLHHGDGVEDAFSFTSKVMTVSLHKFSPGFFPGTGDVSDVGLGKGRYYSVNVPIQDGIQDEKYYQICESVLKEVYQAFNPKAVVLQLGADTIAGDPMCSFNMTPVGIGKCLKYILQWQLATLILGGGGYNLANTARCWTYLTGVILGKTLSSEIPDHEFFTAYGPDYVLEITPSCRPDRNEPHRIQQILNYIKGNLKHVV

[6] = sensitive and resistant leukemic cell lines
[7] = patients, PPK 1-compartment model

| SMILES | exposure time after which CMYC mRNA levels downregulation was observed (CMYC [1]) | intracellular concentration, mean [2, 6] | intracellular concentration, range [2, 6] | time to cellular uptake [2, 6] | extracellular levels ([2]; stable up to 6 h of incubation) | GI50 [3] | GI50 (HL60, U937 and Jurkat) | half-life ([4]; human, plasma, oral, all patients, read-out: mean elimination half-life (converted)) | Tmax ([4]; human, plasma, oral, patients) | absorption constant Ka ([4]; patients, 10-160 mg oral, PPK 1-compartment model) | apparent clearance CL/F [4, 7] | apparent distribution volume V/F [4, 7] | CMYC protein and mRNA levels (CMYC [5]) | IC50 (HDAC8) |
| --- | --- | --- | --- | --- | --- | --- | --- | --- | --- | --- | --- | --- | --- | --- |
| Cc1sc2c(c1C)C(c1ccc(Cl)cc1)=N[C@@H](CC(=O)Nc1ccc(O)cc1)c1nnc(C)n1-2 [Compound (1-1), 2-[(6S)-4-(4-chlorophenyl)-2,3,9-trimethyl-6H-thienol[3,2-f]-[1,2,4]triazolo[4,3-a][1,4]diazepin-6-yl]-N-(4-hydroxyphenyl)acetamide dihydrate] | 2 h | ~15 ng/106 cells | 3-23 ng·mL-1/106 cells | < 5 min | ~200 ng/mL | ≥ 6000 nM | 230 to 384 nM | 5.8 h | 1 to 4 h | 0.74 h⁻¹ | 8.45 L/h | 71.7 L | rapid downregulation | – |
| Cc1cc(Cl)ccc1OCCCC(=O)NO [Droxinostat, 4-(4-Chloro-2-methylphenoxy)-N-hydroxybutanamide] | – | – | – | – | – | – | – | – | – | – | – | – | – | 1460 nM |

From patent US9956228B2, “Method of treating acute myeloid leukemia and/or acute lymphoblastic leukemia using thienotriazolodiazepine compounds” (ONCOETHIX GMBH, priority 2014, dated 2018)
